Reference: ChEMBL document CHEMBL1154198, “Chemical genetics of Plasmodium falciparum” (Nature, 2010)

Assays:
Plasmodium falciparum [1] = experiment: ST_JUDE: Plasmodium falciparum 3D7 EC50 (uM) as measured by SYBR green dye; format: functional, organism-based
Plasmodium falciparum [2] = experiment: ST_JUDE: Plasmodium falciparum K1 EC50 (uM) as measured by SYBR green dye; format: functional, organism-based

SMILES	EC50 (Plasmodium falciparum [1])	EC50 (Plasmodium falciparum [2])
CC1CCN(Cc2cc(COCc3ccccc3)c3cccnc3c2O)CC1	2.87 µM	3.19 µM
COc1ccc(OC)c2sc(N(Cc3cccnc3)C(=O)c3cccc(C)c3)nc12	> 15 µM	2.33 µM
COc1cccc(C2Nc3ccc(C(C)=O)cc3C3C=CCC32)c1OC (stereo not drawn)	3.42 µM	8.22 µM
CCCC(=O)N1CCN(c2ccc(NC(=O)c3cccc(OCC)c3)cc2Cl)CC1	> 15 µM	> 15 µM
CCn1c2c(c(=N)c3c1CCC3)CCCC2	3.12 µM	6.57 µM
CCOc1ccccc1C(=O)NCCc1csc(-c2ccc(OC)cc2)n1	> 15 µM	7.53 µM
CCN1C=CC=C/C1=C/c1ccc2cc(C)ccc2[n+]1CC	0.543 µM	0.453 µM
Cc1cc(C)nc(/N=C(\N)Nc2ccc(Cl)cc2C(=O)c2ccccc2)n1	3.59 µM	8.05 µM
CN(C)CCCNCc1ccc2[nH]c3c(c2c1)CCCC3	3.4 µM	> 15 µM
CCOc1cc(/C=N/N=C(N)N)ccc1OCc1ccccc1	0.867 µM	6.56 µM
O=C(O)c1ccc(NC2=C(n3nnc4ccccc43)C(=O)c3ccccc3C2=O)cc1	> 15 µM	1.49 µM
CCCC(=O)NC(c1ccccc1Cl)c1cc(Cl)c2cccnc2c1O (stereo not drawn)	> 15 µM	> 15 µM
Oc1ccc(Br)cc1CN1CCN(Cc2ccccc2C(F)(F)F)CC1	1.88 µM	0.45 µM
COC(=O)c1ccc(NC(=O)CSc2ccc3nnc(-c4ccc(C)cc4)n3n2)cc1	> 15 µM	> 15 µM
CCOC(=O)c1cnc2ccc(OC)cc2c1NCCCN1CCOCC1	5.94 µM	4.38 µM
CCCN1CCN(CCCNC(=S)Nc2ccc3nc(N4CCN(C)CC4)cc(C)c3c2)CC1	5.43 µM	6.85 µM
CCCCN(C)Cc1c(C)nc2ccc(OCc3ccccc3)cc2c1O	> 15 µM	> 15 µM
Oc1ccc(Br)cc1CN1CCN(Cc2ccc(Cl)cc2)CC1	1.48 µM	0.215 µM
CCC1(C)CC(CCNCc2ccc(F)cc2)(c2ccc(F)cc2)CCO1 (stereo not drawn)	1.15 µM	0.518 µM
CC(=O)N(C1=C(NCCO)C(=O)c2ccccc2C1=O)c1cccc(Br)c1	0.0171 µM	0.0286 µM
O=C(Nc1cccc(Br)c1)C1(c2ccccc2)CC1(Cl)Cl (stereo not drawn)	4.43 µM	3.11 µM
COc1ccc(/C=C/c2cc[n+](C)cc2)cc1	3.4 µM	3.82 µM

SMILES	EC50 (Plasmodium falciparum [1])	EC50 (Plasmodium falciparum [2])
Cc1ccc(C)c(NC(=O)c2c(-c3c(Cl)cccc3Cl)noc2C)c1	0.537 µM	4.36 µM
CC(=O)NC(c1ccc(Cl)cc1Cl)c1ccc2cccnc2c1O (stereo not drawn)	3.22 µM	3.01 µM
C/C(=N/NC(N)=S)C1C(=O)c2ccccc2C1=O	> 15 µM	> 15 µM
CCC(C)c1ccccc1OCC(O)CNC1CCCC1 (stereo not drawn)	1.73 µM	0.959 µM
Cc1ccnc(N2C(=O)c3ccccc3C2Nc2ccccc2C)c1 (stereo not drawn)	> 15 µM	> 15 µM
Cc1cccc(C2Sc3ccccc3N=C3C2=C(O)c2ccccc23)c1 (stereo not drawn)	1.89 µM	1.77 µM
Cc1cccc(NC(=O)c2cc3ccccc3cc2O)c1	1.15 µM	0.602 µM
COc1ccc(Cl)cc1NC(=O)C1c2ccccc2C(=O)N(CC(C)C)C1c1cccs1 (stereo not drawn)	0.367 µM	0.386 µM
Cc1ccc(N2C(=O)C(Cl)=C(Nc3ccccc3C)C2=O)c(C)c1	> 15 µM	> 15 µM
CCc1ccc(CN2CCC(n3nccc3NC(=O)Nc3ccccc3C)CC2)cc1	6.75 µM	> 15 µM
Cc1cc(N(C)C)nc(Nc2ccc(NS(=O)(=O)c3cc(C(C)C)ccc3C)cc2)n1	1.55 µM	3.35 µM
O=C(Cc1ccc(Cl)cc1)Nc1ccc(-c2nc3ccccc3[nH]2)cc1	> 15 µM	> 15 µM
Oc1cccc2ccc[n+](CC(O)Cn3c4ccccc4c4ccccc43)c12 (stereo not drawn)	1.31 µM	> 15 µM
Cc1cccc(NC(c2ccc(Cl)cc2)c2ccc3cccnc3c2O)n1 (stereo not drawn)	3.54 µM	3.14 µM
COC(=O)C1=CN(Cc2ccc(C)cc2)C=C(C(=O)OC)C1c1cc(OC)c(OC)c(OC)c1	4.49 µM	5.49 µM
COc1ccc(C(O)(CCC(C)C)C(CN2CCOCC2)c2ccccc2)cc1 (stereo not drawn)	3.67 µM	3.27 µM
CCCCCC(O)(c1ccccc1)C(CN1CCOCC1)c1ccccc1 (stereo not drawn)	3.26 µM	2.04 µM
CC(=O)N(C1=C(N2CCCCC2)C(=O)c2ccccc2C1=O)c1ccc(C)cc1	7.46 µM	4.48 µM
CCOC(=O)C1=C(CN(C)c2ccc(F)cc2)NC(=O)NC1c1ccc(F)cc1 (stereo not drawn)	3.51 µM	1.23 µM
CN(C)c1cc[n+](CC(=O)c2ccc(Cl)cc2)cc1	2.44 µM	1.74 µM
CN1CCN(c2nc(Nc3ccc(O)cc3)nc3ccccc23)CC1	2.75 µM	6.2 µM
CCC1=[N+](C)c2cccc3cccc(c23)N1C	5.13 µM	4.41 µM
